Source: patent publication US20240336608A1, “IL4I1 INHIBITORS AND METHODS OF USE” (Merck Sharp & Dohme LLC, priority 2023, published 2024)

Biological target: T1, recombinant IL4I1 (Homo sapiens, UniProt Q96RQ9)
T1 construct: purchased R&D Systems 5684-AO-020
T1 sequence (Q96RQ9 22-567): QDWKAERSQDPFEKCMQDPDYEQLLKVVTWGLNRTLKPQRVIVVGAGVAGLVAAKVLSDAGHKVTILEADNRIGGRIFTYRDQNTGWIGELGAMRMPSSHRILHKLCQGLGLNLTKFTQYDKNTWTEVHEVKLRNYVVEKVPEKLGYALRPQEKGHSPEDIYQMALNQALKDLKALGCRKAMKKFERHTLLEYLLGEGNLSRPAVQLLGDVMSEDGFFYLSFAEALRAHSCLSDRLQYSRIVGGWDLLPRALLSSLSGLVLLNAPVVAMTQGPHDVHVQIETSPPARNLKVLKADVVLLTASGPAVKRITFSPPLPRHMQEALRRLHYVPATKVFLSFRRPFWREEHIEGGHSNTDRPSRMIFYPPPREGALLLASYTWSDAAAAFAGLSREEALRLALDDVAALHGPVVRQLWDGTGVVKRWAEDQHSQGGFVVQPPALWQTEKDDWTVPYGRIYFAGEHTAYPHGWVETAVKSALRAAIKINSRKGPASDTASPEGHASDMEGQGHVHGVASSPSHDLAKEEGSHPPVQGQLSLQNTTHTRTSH
Experiment: IL4I1 Enzymatic Assay (Amplex Red/HRP coupled detection of H2O2, fluorescence)
Assay type: biochemical
Conditions: 1 nM recombinant IL4I1; four-hour pre-incubation with compound; 1 mM each Phe, Tyr, Trp; ten-point titration
Procedure: Interleukin 4 inducible protein 1 (IL4I1) is an L-amino oxidase that catalyzes the oxidation of aromatic residues (Phe, Trp and Tyr): L-amino acid+H2O+O2→2-oxo acid+NH3+H2O2. Equal molar of H2O2 and the corresponding alpha-ketoacid are produced when IL4I1 and substrate are added. In this assay, the hydrogen peroxide generated by IL4I1 is then detected through a coupled reaction with Amplex Red (10-acetyl-3,7-dihydroxyphenoxazine) and […] (HRP) to produce Resorufin product that could be detected in the form of fluorescence signals. The assessment of the inhibitory effect of small molecules (EC50) on IL4I1 is measured by the effectiveness of the compounds to inhibit the production of H202.
Using this assay, the potency (EC50) of each compound was determined from a ten-point (1:3 serial dilution) titration curve using the following outlined procedure. To each well of a black flat-bottom Greiner (Cat #781076) 384 well-plate, 125 nL of compound (0.5% DMSO in final assay volume of 25 μL) was dispensed, followed by the addition of 12.5 μL of 1× assay buffer (50 mM Hepes 7.0 and 0.005% Tween20 (Sigma, Cat #P8341; low peroxide grade)) containing 2 nM of recombinant IL4I1 (R&D Systems, Cat #5684-AO-020). Plates were placed in an ambient temperature humidified chamber for a four-hour pre-incubation with compound. Subsequently, each reaction was initiated by the addition of 12.5 μL 1× assay buffer containing 2 mM of each aromatic amino acids (Phe/Tyr/Trp), 0.1 mM Amplex Red and 2 U/mL of HRP. The final reaction in each well of 25 μL consists of 1 nM of IL4I1, 1 mM of each residue (Phe, Tyr and Trp), 0.05 mM Amplex Red and 1 U/mL of HRP. It should be noted that the concentrations of Amplex Red and HRP used here are in excess such that the conversion of H2O2 to Resorufin product occurs instantaneously and non-rate limiting. Reactions were allowed to proceed for 120 minutes followed by fluorescence readout on a Spectramax with the following set parameters: 544 nm excitation/590 nm emission, 570 nm cutoff (EnVision is an alternative reader). Dose-response curves were generated by plotting percent effect (% inhibition; Y-axis) vs. Log10 compound concentrations (X-axis). EC50 values were calculated using a non-linear regression, four-parameters sigmoidal dose-response model and are shown in Table 16.

SMILES	EC50 [µM]
CNC(=O)C(C)(C)n1cc(C(=O)NCc2nnc(-c3ccncc3)s2)nn1 [Example 321, 1-(2-methyl-1-(methylamino)-1-oxopropan-2-yl)-N-((5-(pyridin-4-yl)-1,3,4-thiadiazol-2-yl)methyl)-1H-1,2,3-triazole-4-carboxamide]	0.051
O=C(NCc1nnc(-c2ccccc2)s1)c1cn(C2(C(F)F)CC2)nn1 [Example 152, 1-(1-(difluoromethyl)cyclopropyl)-N-((5-phenyl-1,3,4-thiadiazol-2-yl)methyl)-1H-1,2,3-triazole-4-carboxamide]	0.167
O=C(NCc1nnc(-c2ccccc2)s1)c1cn([C@@H]2C[C@@H](O)[C@@H](O)C2)nn1 [Example 190, 1-((1s,3R,4S)-3,4-dihydroxycyclopentyl)-N-((5-phenyl-1,3,4-thiadiazol-2-yl)methyl)-1H-1,2,3-triazole-4-carboxamide]	0.499
Cc1ccc(-n2cc(C(=O)NCc3ccc(-c4cccc(F)c4)nn3)nn2)c(C)n1 [Example 120, 1-(2,6-dimethylpyridin-3-yl)-N-((6-(3-fluorophenyl)pyridazin-3-yl)methyl)-1H-1,2,3-triazole-4-carboxamide]	0.123
Cc1ccsc1C(=O)NCc1nnc(-c2ccccc2)s1 [Example 15, 3-methyl-N-[(5-phenyl-1,3,4-thiadiazol-2-yl)methyl]thiophene-2-carboxamide]	0.153
CC(C)(O)c1cc(C(=O)NCc2nnc(-c3ccccc3)s2)no1 [Example 317, 5-(2-hydroxypropan-2-yl)-N-((5-phenyl-1,3,4-thiadiazol-2-yl)methyl)isoxazole-3-carboxamide]	0.021
O=C(NCc1nnc(-c2ccccc2)s1)c1cn(CC2(O)CCC2)nn1 [Example 137, 1-((1-hydroxycyclobutyl)methyl)-N-((5-phenyl-1,3,4-thiadiazol-2-yl)methyl)-1H-1,2,3-triazole-4-carboxamide]	0.574
Cc1ccc(-n2cc(C(=O)NCc3ccc(C4CCCCC4)nn3)nn2)c(C)n1 [Example 326, N-((6-cyclohexylpyridazin-3-yl)methyl)-1-(2,6-dimethylpyridin-3-yl)-1H-1,2,3-triazole-4-carboxamide]	0.263
CCC(CC)Cn1cc(C(=O)NCc2nnc(-c3ccccc3)s2)nn1 [Example 82, 1-(2-ethylbutyl)-N-((5-phenyl-1,3,4-thiadiazol-2-yl)methyl)-1H-1,2,3-triazole-4-carboxamide]	0.282
CCC(C)Cn1cc(C(=O)NCc2nnc(-c3ccccc3)s2)nn1 (centres unmarked) [Example 89, 1-(2-methylbutyl)-N-((5-phenyl-1,3,4-thiadiazol-2-yl)methyl)-1H-1,2,3-triazole-4-carboxamide]	0.037
O=C(NCc1nnc(-c2ccccc2)s1)c1cn([C@H]2COC[C@@H]2F)nn1 [Example 199, 1-((3S,4R)-4-fluorotetrahydrofuran-3-yl)-N-((5-phenyl-1,3,4-thiadiazol-2-yl)methyl)-1H-1,2,3-triazole-4-carboxamide]	0.14
Cc1ccc(-n2cc(C(=O)NCc3ccc(-c4sccc4C)nn3)nn2)c(C)n1 [Example 122, 1-(2,6-dimethylpyridin-3-yl)-N-((6-(3-methylthiophen-2-yl)pyridazin-3-yl)methyl)-1H-1,2,3-triazole-4-carboxamide]	0.571
O=C(NCc1nnc(-c2ccccc2)s1)c1cn([C@H]2C[C@H](O)C2)nn1 [Example 281]	0.011
O=C(NCc1nnc(-c2ccccc2)s1)c1cn(C2CCC2)nn1 [Example 68, 1-cyclobutyl-N-((5-phenyl-1,3,4-thiadiazol-2-yl)methyl)-1H-1,2,3-triazole-4-carboxamide]	0.017
N#CCCn1cc(C(=O)NCc2nnc(-c3ccccc3)s2)nn1 [Example 71, 1-(2-cyanoethyl)-N-((5-phenyl-1,3,4-thiadiazol-2-yl)methyl)-1H-1,2,3-triazole-4-carboxamide]	0.011
O=C(NCc1nnc(-c2ccccc2)s1)c1cn(C23CC(C2)C3)nn1 [Example 172, 1-(bicyclo[1.1.1]pentan-1-yl)-N-((5-phenyl-1,3,4-thiadiazol-2-yl)methyl)-1H-1,2,3-triazole-4-carboxamide]	0.049
Cn1c(C(=O)NCc2nnc(-c3ccccc3)s2)cc2ccccc21 [Example 54, 1-methyl-N-((5-phenyl-1,3,4-thiadiazol-2-yl)methyl)-1H-indole-2-carboxamide]	0.322
CC1(n2cc(C(=O)NCc3nnc(-c4ccccc4)s3)nn2)CCC1 [Example 124, 1-(1-methylcyclobutyl)-N-((5-phenyl-1,3,4-thiadiazol-2-yl)methyl)-1H-1,2,3-triazole-4-carboxamide]	0.023
Cc1csc(C(=O)NCc2nnc(-c3ccccc3)s2)c1 [Example 10, 4-methyl-N-[(5-phenyl-1,3,4-thiadiazol-2-yl)methyl]thiophene-2-carboxamide]	0.01
O=C1COC(Cn2cc(C(=O)NCc3nnc(-c4ccccc4)s3)nn2)CN1 (centres unmarked) [Example 192, 1-((5-oxomorpholin-2-yl)methyl)-N-((5-phenyl-1,3,4-thiadiazol-2-yl)methyl)-1H-1,2,3-triazole-4-carboxamide]	0.264
Cc1ccc(-n2cc(C(=O)NCc3nnc(-c4ccc(Cl)cc4)s3)nn2)c(C)n1 [Example 113, N-((5-(4-chlorophenyl)-1,3,4-thiadiazol-2-yl)methyl)-1-(2,6-dimethylpyridin-3-yl)-1H-1,2,3-triazole-4-carboxamide]	0.838
Cc1ccc(-n2cc(C(=O)NCc3cc(-c4ccccn4)no3)nn2)c(C)n1 [Example 235, 1-(2,6-dimethylpyridin-3-yl)-N-((3-(pyridin-2-yl)isoxazol-5-yl)methyl)-1H-1,2,3-triazole-4-carboxamide]	0.388
O=C(NCc1nnc(-c2ccccc2)s1)c1cn([C@@H]2C[C@H]2CO)nn1 (single isomer, unassigned) [Example 142, Trans-1-(2-(hydroxymethyl)cyclopropyl)-N-((5-phenyl-1,3,4-thiadiazol-2-yl)methyl)-1H-1,2,3-triazole-4-carboxamide]	0.033
COCCOCCn1cc(C(=O)NCc2nnc(-c3ccccc3)s2)nn1 [Example 85, 1-(2-(2-methoxyethoxy)ethyl)-N-((5-phenyl-1,3,4-thiadiazol-2-yl)methyl)-1H-1,2,3-triazole-4-carboxamide]	0.015
Cc1[nH]nc(C(=O)NCc2nnc(-c3ccccc3)s2)c1F [Example 46, 4-fluoro-5-methyl-N-[(5-phenyl-1,3,4-thiadiazol-2-yl)methyl]-1H-pyrazole-3-carboxamide]	0.092
CC(C)(Cn1cc(C(=O)NCc2nnc(-c3ccccc3)s2)nn1)C(N)=O [Example 126, 1-(3-amino-2,2-dimethyl-3-oxo-propyl)-N-[(5-phenyl-1,3,4-thiadiazol-2-yl)methyl]triazole-4-carboxamide]	0.843
Cc1cc(C)c(C(=O)NCc2nnc(-c3ccccc3)s2)o1 [Example 57, 3,5-dimethyl-N-[(5-phenyl-1,3,4-thiadiazol-2-yl)methyl]furan-2-carboxamide]	0.974
CC(C#N)n1cc(C(=O)NCc2cc(-c3ccncc3)on2)nn1 (single isomer, unassigned) [Example 276, 1-(1-cyanoethyl)-N-((5-(pyridin-4-yl)isoxazol-3-yl)methyl)-1H-1,2,3-triazole-4-carboxamide]	0.113
Cn1nnc(C(=O)NCc2nnc(-c3ccccc3)s2)c1F [Example 289, 5-fluoro-1-methyl-N-((5-phenyl-1,3,4-thiadiazol-2-yl)methyl)-1H-1,2,3-triazole-4-carboxamide]	0.301
